{"source": "patent US7759373B2", "about": "“Large conductance calcium-activated K channel opener” (Mitsubishi Tanabe Pharma Corporation, priority 2001, dated 2010)", "data": [{"system": "rhythmic bladder contractions induced by substance P", "test": "Inhibitory effect on the rhythmic bladder contractions induced by substance P in anesthetized rats", "assay_type": "in vivo, rat", "conditions": "time during which frequency of rhythmic contraction was completely inhibited, 0.25 mg/kg of the compound, substance P infusion", "procedure": "Inhibitory effect on the rhythmic bladder contractions induced by substance P in anesthetized rats\nFor the experiments, Sprague-Dawley female rats (9 to 12 weeks old) weighing between 200 to 300 g were used. After urethane anesthetization (subcutaneously administered with a dose of 1.2 g/kg), cannulae were placed in both right and left femoral veins. One intravenous catheter was used for administration of compounds, and the other was for the substance P (0.33 μg/kg/min) infusion. We also cannulated into ureter to pass urine. Polyethylene catheters were inserted into carotid artery for continuous monitoring of arterial blood pressure and heart rate. For continuous infusion, transurethral bladder catheter was inserted into the bladder through the urethra and tied in place by a ligature around the urethral orifice. One end of the catheter was attached to a pressure transducer in order to measure intravesical pressure. The other end of the catheter was used for infusion of saline into the bladder. After stabilization of blood pressure and heart rate and after the bladder was emptied, cystometry was performed by filling the bladder slowly with about 0.6 ml of saline. After about 10 minutes, intravenous infusion of substance P (0.33 μg/kg/min) was started for stabilization of the micturition reflex. Compounds were administered after stable rhythmic bladder contraction was obtained over 15 minutes. All compounds were dissolved or suspended in saline containing 0.5% Tween 80 for intravenous administration (0.1 ml/kg).\nA 100% inhibition time (minute) of the selected compounds of the present invention is shown in the following Table 65 with a rank of A, B or C. These ranges are as mentioned below. A≧20>B≧10>C (minute)", "values": [{"compound": "Cl.O=C(O)Cc1nc(-c2ccc(F)cc2)oc1-c1cccnc1", "note": "[Preparation Example 484, 2-(4-fluoro-phenyl)-5-(3-pyridyl)oxazol-4-yl acetic acid hydrochloride]", "100% inhibition time range": "B (A≧20>B≧10>C (minute))"}, {"compound": "COc1ccc(-c2nc(-c3ccc(Cl)c(F)c3)c(CC(=O)O)s2)cc1", "note": "[Preparation Example 582]", "100% inhibition time range": "A (A≧20>B≧10>C (minute))"}, {"compound": "OCc1nc(-c2ccc(Cl)cc2)[nH]c1-c1ccccc1", "note": "[Preparation Example 176]", "100% inhibition time range": "C (A≧20>B≧10>C (minute))"}, {"compound": "NC(C(=O)O)c1nc(-c2ccc(F)cc2)oc1-c1ccc(Cl)s1", "note": "(centres unmarked) [Preparation Example 627]", "100% inhibition time range": "C (A≧20>B≧10>C (minute))"}, {"compound": "O=C(O)Cc1nc(-c2ccc(F)cc2)oc1-c1cccc(F)c1", "note": "[Preparation Example 236]", "100% inhibition time range": "C (A≧20>B≧10>C (minute))"}, {"compound": "O=C(O)Cc1nc(-c2ccc(F)cc2)oc1-c1ccc(F)c(F)c1", "note": "[Preparation Example 166]", "100% inhibition time range": "B (A≧20>B≧10>C (minute))"}, {"compound": "CCc1nc(-c2ccc(F)cc2)[nH]c1-c1cncnc1", "note": "[Preparation example 85]", "100% inhibition time range": "C (A≧20>B≧10>C (minute))"}, {"compound": "Cc1ccccc1-c1nc(CC(=O)O)c(-c2cccs2)o1", "note": "[Preparation Example 433]", "100% inhibition time range": "C (A≧20>B≧10>C (minute))"}, {"compound": "COc1ccc(-c2nc(CC(=O)O)c(-c3ccsc3)o2)cn1", "note": "[Preparation Example 369]", "100% inhibition time range": "B (A≧20>B≧10>C (minute))"}, {"compound": "COc1ccc(-c2oc(-c3ccc(F)cc3)nc2CC(=O)O)cc1F", "note": "[Preparation Example 250]", "100% inhibition time range": "B (A≧20>B≧10>C (minute))"}, {"compound": "O=C(O)Cc1nc(-c2cscn2)oc1-c1ccc(Cl)s1", "note": "[Preparation Example 274]", "100% inhibition time range": "B (A≧20>B≧10>C (minute))"}, {"compound": "Cn1c(-c2nc(CC(=O)O)c(-c3ccc(Cl)s3)o2)cc2ccccc21", "note": "[Preparation Example 472]", "100% inhibition time range": "A (A≧20>B≧10>C (minute))"}, {"compound": "O=C(Cc1nc(-c2ccc(F)cc2)oc1-c1ccsc1)Nc1cccnc1", "note": "[Preparation Example 376]", "100% inhibition time range": "C (A≧20>B≧10>C (minute))"}, {"compound": "2-(4-fluorophenyl)-5-(2-thienyl)oxazole-4-yl propionic acid sodium salt [Preparation Example 338]", "100% inhibition time range": "C (A≧20>B≧10>C (minute))"}, {"compound": "O=C(O)Cc1nc(-c2ccc(F)cc2)oc1-c1ccccc1F", "note": "[Preparation Example 162]", "100% inhibition time range": "C (A≧20>B≧10>C (minute))"}, {"compound": "Cc1ccc(-c2nc(CC(=O)O)c(-c3ccsc3)o2)cc1", "note": "[Preparation Example 198]", "100% inhibition time range": "C (A≧20>B≧10>C (minute))"}, {"compound": "Cc1cc(-c2nc(CC(=O)O)c(-c3ccc(Cl)s3)o2)sc1C", "note": "[Preparation Example 467]", "100% inhibition time range": "A (A≧20>B≧10>C (minute))"}, {"compound": "Cl.Cl.N#CCCc1[nH]c(-c2ccc(F)cc2)nc1-c1cccnc1", "note": "[Preparation example 43, 5-(2-cyanoethyl)-2-(4-fluorophenyl)-4-(3-pyridyl)-imidazole dihydrochloride]", "100% inhibition time range": "C (A≧20>B≧10>C (minute))"}, {"compound": "CCN(CC)C(=O)Cc1nc(-c2ccc(F)cc2)oc1-c1ccsc1", "note": "[Preparation Example 617]", "100% inhibition time range": "B (A≧20>B≧10>C (minute))"}, {"compound": "CC(C(=O)O)c1nc(-c2ccc(F)cc2)oc1-c1ccsc1", "note": "(centres unmarked) [Preparation Example 613]", "100% inhibition time range": "C (A≧20>B≧10>C (minute))"}, {"compound": "CCOC(=O)Cc1nc(-c2ccc(N(C)C)nc2)oc1-c1cccs1", "note": "[Preparation Example 331]", "100% inhibition time range": "A (A≧20>B≧10>C (minute))"}, {"compound": "O=C(O)Cc1nc(-c2ccc(F)cc2)oc1-c1cc(Cl)ccc1O", "note": "[Preparation Example 242]", "100% inhibition time range": "C (A≧20>B≧10>C (minute))"}, {"compound": "O=C(O)Cc1nc(-c2ccc3c(c2)CCCO3)oc1-c1ccsc1", "note": "[Preparation Example 443]", "100% inhibition time range": "C (A≧20>B≧10>C (minute))"}, {"compound": "NC(=O)Cc1nc(-c2ccc(F)cc2)oc1-c1ccsc1", "note": "[Preparation Example 615]", "100% inhibition time range": "B (A≧20>B≧10>C (minute))"}, {"compound": "COCc1nc(-c2ccc(F)cc2)[nH]c1-c1ccsc1", "note": "[Preparation example 122]", "100% inhibition time range": "B (A≧20>B≧10>C (minute))"}, {"compound": "Cc1ccc2sc(-c3nc(CC(=O)O)c(-c4ccc(Cl)s4)o3)cc2c1", "note": "[Preparation Example 450]", "100% inhibition time range": "B (A≧20>B≧10>C (minute))"}, {"compound": "COc1ccc(-c2nc(-c3ccc(Cl)s3)c(CC(=O)O)s2)cn1", "note": "[Preparation Example 591]", "100% inhibition time range": "B (A≧20>B≧10>C (minute))"}, {"compound": "CS(=O)(=O)Nc1nc(-c2ccc(F)cc2)oc1-c1ccsc1.[Na]", "note": "[Preparation Example 380, N-[2-(4-fluorophenyl)-5-(3-thienyl)oxazol-4-yl]methanesulfonamide sodium salt]", "100% inhibition time range": "C (A≧20>B≧10>C (minute))"}, {"compound": "CC(C)c1ccc(-c2nc(CC(=O)O)c(-c3cccs3)o2)cc1", "note": "[Preparation Example 291]", "100% inhibition time range": "C (A≧20>B≧10>C (minute))"}, {"compound": "O=C(O)Cc1nc(-c2ccc(C(F)(F)F)cc2)oc1-c1cccs1", "note": "[Preparation Example 430]", "100% inhibition time range": "B (A≧20>B≧10>C (minute))"}, {"compound": "CCc1nc(-c2ccc(F)cc2)[nH]c1-c1ccc(C)nc1", "note": "[Preparation example 47]", "100% inhibition time range": "B (A≧20>B≧10>C (minute))"}, {"compound": "O=C(O)Cc1nc(-c2ccc3ccccc3n2)oc1-c1ccsc1", "note": "[Preparation Example 439]", "100% inhibition time range": "C (A≧20>B≧10>C (minute))"}, {"compound": "O=C(Cc1nc(-c2ccc(F)cc2)oc1-c1ccsc1)NCc1ccccn1", "note": "[Preparation Example 375]", "100% inhibition time range": "C (A≧20>B≧10>C (minute))"}, {"compound": "O=C(O)Cc1nc(-c2cc3ncccc3s2)oc1-c1ccc(Cl)s1", "note": "[Preparation Example 470]", "100% inhibition time range": "B (A≧20>B≧10>C (minute))"}, {"compound": "O=C(O)Cc1sc(-c2ccc(F)cc2)nc1-c1ccc(Cl)cc1", "note": "[Preparation Example 573]", "100% inhibition time range": "B (A≧20>B≧10>C (minute))"}, {"compound": "COc1ccc(-c2nc(CC(=O)O)c(-c3ccc(Cl)s3)o2)cn1", "note": "[Preparation Example 368]", "100% inhibition time range": "B (A≧20>B≧10>C (minute))"}, {"compound": "COc1cc(-c2oc(-c3ccc(F)cc3)nc2CC(=O)O)ccc1O", "note": "[Preparation Example 293]", "100% inhibition time range": "C (A≧20>B≧10>C (minute))"}, {"compound": "CN(C)c1ccc(-c2nc(CC(=O)O)c(-c3cccs3)o2)cn1", "note": "[Preparation Example 259]", "100% inhibition time range": "B (A≧20>B≧10>C (minute))"}, {"compound": "COc1ccc(-c2nc(-c3ccc(Cl)s3)c(CC(=O)O)o2)cc1", "note": "[Preparation Example 516]", "100% inhibition time range": "B (A≧20>B≧10>C (minute))"}, {"compound": "O=C(O)Cc1nc(-c2cc3ccccc3[nH]2)oc1-c1ccc(Cl)s1", "note": "[Preparation Example 466]", "100% inhibition time range": "B (A≧20>B≧10>C (minute))"}, {"compound": "Clc1cc(-c2ncc(-c3cccnc3)[nH]2)cs1", "note": "[Preparation example 24]", "100% inhibition time range": "C (A≧20>B≧10>C (minute))"}, {"compound": "CC(C)COc1cc(-c2oc(-c3ccc(F)cc3)nc2CC(=O)O)ccc1O", "note": "[Preparation Example 292]", "100% inhibition time range": "C (A≧20>B≧10>C (minute))"}, {"compound": "CN(C)c1ncc(-c2nc(-c3ccc(Cl)cc3)c(CC(=O)O)o2)cn1", "note": "[Preparation Example 513]", "100% inhibition time range": "C (A≧20>B≧10>C (minute))"}, {"compound": "O=C(O)Cc1nc(-c2ccc(F)cc2)oc1-c1ccccc1", "note": "[Preparation Example 153]", "100% inhibition time range": "B (A≧20>B≧10>C (minute))"}, {"compound": "CSCc1ccc(-c2nc(CC(=O)O)c(-c3ccc(Cl)s3)o2)cc1", "note": "[Preparation Example 448]", "100% inhibition time range": "C (A≧20>B≧10>C (minute))"}, {"compound": "Cc1cc(-c2nc(CC(=O)O)c(-c3ccc(Cl)cc3)o2)sc1C", "note": "[Preparation Example 474]", "100% inhibition time range": "C (A≧20>B≧10>C (minute))"}, {"compound": "CCc1nc(-c2ccc(C#N)cc2)[nH]c1-c1ccccc1", "note": "[Preparation example 27]", "100% inhibition time range": "B (A≧20>B≧10>C (minute))"}, {"compound": "O=C(O)Cc1sc(-c2cc3ccccc3s2)nc1-c1ccc(Cl)s1", "note": "[Preparation Example 569]", "100% inhibition time range": "A (A≧20>B≧10>C (minute))"}, {"compound": "O=C(O)Cc1sc(-c2ccc(Cl)cc2)nc1-c1ccc(Cl)s1", "note": "[Preparation Example 588]", "100% inhibition time range": "C (A≧20>B≧10>C (minute))"}, {"compound": "O=C(O)Cc1nc(-c2ccc(F)cc2)oc1-c1ccccc1O", "note": "[Preparation Example 237]", "100% inhibition time range": "C (A≧20>B≧10>C (minute))"}, {"compound": "Cc1cc(-c2oc(-c3ccc(F)cc3)nc2CC(=O)O)sc1CO", "note": "[Preparation Example 233]", "100% inhibition time range": "C (A≧20>B≧10>C (minute))"}, {"compound": "O=C(O)Cc1[nH]c(-c2cc3ccccc3s2)nc1-c1ccc(Cl)s1", "note": "[Preparation Example 351]", "100% inhibition time range": "C (A≧20>B≧10>C (minute))"}, {"compound": "CN(C)c1ccc(-c2nc(-c3ccc(Cl)c(F)c3)c(CC(=O)O)s2)cn1", "note": "[Preparation Example 585]", "100% inhibition time range": "C (A≧20>B≧10>C (minute))"}, {"compound": "O=C(O)Cc1nc(-c2cc3ccccc3s2)oc1-c1ccc(Cl)c(F)c1", "note": "[Preparation Example 447]", "100% inhibition time range": "B (A≧20>B≧10>C (minute))"}, {"compound": "CNc1[nH]c(-c2ccc(F)cc2)nc1-c1ccccc1", "note": "[Preparation example 107, 5-methylamino-2-(4-fluorophenyl)-4-phenylimidazole]", "100% inhibition time range": "B (A≧20>B≧10>C (minute))"}, {"compound": "CC(O)c1ccc(-c2oc(-c3ccc(F)cc3)nc2CC(=O)O)s1", "note": "(centres unmarked) [Preparation Example 234]", "100% inhibition time range": "C (A≧20>B≧10>C (minute))"}]}]}
